SMILES strings stand for the structures. Some results are limits rather than exact numbers.

The test system of test [1] is asymmetric di-methyl PABP1 in RKO cells. The test is described as follows: RKO methylation assay, In Cell Western (ICW) for asymmetric di-methyl PABP1. It is filed as cell-based. To be noted: Homo sapiens, RKO, Cellular potencies, ICW PABP1me2a. In outline:
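RKO cells treated with compound for 48 h at 37 °C, then fixed, permeabilized and immunostained for asymmetric di-methyl PABP1, with DRAQ5 as DNA stain. Infrared 700/800 nm signal ratio normalized to DMSO and 20 μM reference-compound controls; IC50 from triplicate wells.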

A further test concerns the target human CARM1 (PRMT4) (Homo sapiens (Human), UniProt Q86X55). The test is described as follows: CARM1 enzyme assay on peptide substrate (3H-SAM Flashplate). To be noted: Biochemical potencies, read-out: Biochem IC50. The text has this: S-adenosylmethionine (SAM), S-adenosylhomocysteine (SAH), bicine, Tween20, dimethylsulfoxide (DMSO), bovine skin gelatin (BSG), sodium butyrate and Tris(2-carboxyethyl)phosphine hydrochloride solution (TCEP) were purchased from Sigma-Aldrich at the highest level of purity possible. ^3H-SAM was purchase from American Radiolabeled Chemicals with a specific activity of 80 Ci/mmol. 384-well streptavidin Flashplates were purchased from PerkinElmer.
Peptide representative of human histone H3 residues 16-30 was synthesized with an N-terminal linker-affinity tag motif and a C-terminal amide cap by 21st Century Biochemicals. […] The sequence was Biot-Ahx-[…]-amide and contained a monomethylated arginine at position 26 (SEQ ID NO.:1).
The gene sequence encoding isoform 1 containing a deletion of amino acids 539-561 was amplified subsequently and subcloned into pFastBacMam (Viva Biotech).
Recombinant baculovirus were generated according to Bac-to-Bac kit instructions (Life Technologies). Protein over-expression was accomplished by infecting exponentially growing HEK 293F cell culture at 1.3×10^6 cell/ml with virus (MOI=10) in the presence of 8 mM sodium butyrate. Infections were carried out at 37° C. for 48 hours, harvested by centrifugation, and stored at −80° C. for purification.
Expressed full-length human Flag- and His-tagged CARM1 protein was purified from cell paste by anti-flag M2 affinity chromatography with resin equilibrated with buffer containing 20 mM Tris, 150 mM NaC, 5% glycerol, pH 7.8. Column was washed with 500 mM NaCl in buffer A and Flag-CARM1-His was eluted with 200 ug/ml FLAG peptide in buffer A. Pooled fractions were dialyzed in 20 mM Tris, 150 mM NaCl, 5% glycerol and 1 mM DTT, pH 7.8.
The assays were all performed in a buffer consisting of 20 mM Bicine (pH=7.6), 1 mM TCEP, 0.005% BSG, and 0.002% Tween 20, prepared on the day of use. Compounds in 100% DMSO (1 ul) were spotted into a polypropylene 384-well V-bottom plates (Greiner) using a Platemate Plus outfitted with a 384-channel head (Thermo Scientific). DMSO (1 ul) was added to Columns 11, 12, 23, 24, rows A-H for the maximum signal control and 1 ul of SAH, a known product and inhibitor of CARM1, was added to columns 11, 12, 23, 24, rows I-P for the minimum signal control. A cocktail (40 ul) containing the CARM1 enzyme was added by Multidrop Combi (Thermo-Fisher). The compounds were allowed to incubate with CARM1 for 30 min at room temperature, then a cocktail (10 ul) containing ^3H-SAM and peptide was added to initiate the reaction (final volume=51 ul). The final concentrations of the components were as follows: CARM1 was 0.25 nM, ^3H-SAM was 30 nM, peptide was 250 nM, SAH in the minimum signal control wells was 1 mM, and the DMSO concentration was 2%. The assays were stopped by the addition of non-radiolabeled SAM (10 ul) to a final concentration of 300 uM, which dilutes the ^3H-SAM to a level where its incorporation into the peptide substrate is no longer detectable. 50 ul of the reaction in the 384-well polypropylene plate was then transferred to a 384-well Flashplate and the biotinylated peptides were allowed to bind to the streptavidin surface for at least 1 hour before being washed once with 0.1% Tween20 in a Biotek ELx405 plate washer. The plates were then read in a PerkinElmer TopCount plate reader to measure the quantity of ^3H-labeled peptide bound to the Flashplate surface, measured as disintegrations per minute (dpm) or alternatively, referred to as counts per minute (cpm).
The Hill Coefficient normally allowed to float but may also be fixed at 1 in a 3-parameter fit.

human CARM1 (PRMT4), sequence (Q86X55 other isoform, or with tags, fused parts or gaps isoform Q86X55-1): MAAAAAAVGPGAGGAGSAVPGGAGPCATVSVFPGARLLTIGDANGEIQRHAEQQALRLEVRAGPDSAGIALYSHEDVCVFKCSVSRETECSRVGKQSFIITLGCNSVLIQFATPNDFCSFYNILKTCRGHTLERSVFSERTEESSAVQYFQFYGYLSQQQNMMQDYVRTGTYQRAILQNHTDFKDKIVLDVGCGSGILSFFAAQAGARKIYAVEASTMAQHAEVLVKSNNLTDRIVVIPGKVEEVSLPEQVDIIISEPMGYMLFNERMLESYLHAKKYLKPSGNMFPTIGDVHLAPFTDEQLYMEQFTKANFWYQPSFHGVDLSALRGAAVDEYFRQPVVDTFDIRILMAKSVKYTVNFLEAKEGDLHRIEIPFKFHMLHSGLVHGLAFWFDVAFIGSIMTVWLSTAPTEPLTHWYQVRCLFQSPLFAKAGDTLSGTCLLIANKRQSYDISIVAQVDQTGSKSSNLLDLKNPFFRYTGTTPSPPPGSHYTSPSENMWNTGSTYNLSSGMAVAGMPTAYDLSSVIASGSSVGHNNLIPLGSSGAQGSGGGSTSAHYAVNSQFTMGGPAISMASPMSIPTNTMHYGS

As usually defined, the IC50 is the concentration that gives 50% inhibition. As for `CNCC(O)COc1cccc(-c2nc(N(C)c3cnc(C)nc3)cc(N(C)C3CCOCC3)n2)c1` (stereo not drawn) [Example 588-1a], the half-inhibitory concentration (IC50) lay in the range of 10 to 20 µM in test [1] and 0.1 to 1 µM on human CARM1 (PRMT4).
`CNCC(O)COc1cccc(-c2nc(N[C@@H]3CCOC3)c(C)c(N3CCN(C(C)=O)CC34CC4)n2)c1` (stereo partly drawn) [Example 438-1a]: the IC50 was 10 to 20 µM in test [1] and 0.1 to 1 µM on human CARM1 (PRMT4).
`CNCC(O)COc1cccc(-c2nc(C3CCN(S(C)(=O)=O)CC3)cc(N(C)C3CCOCC3)n2)c1` (stereo not drawn) [Example 527-1a]: the half-inhibitory concentration (IC50) was 5 to 10 µM in test [1] and 0.1 to 1 µM at human CARM1 (PRMT4).
The like results for `CCCCOc1nc(-c2ccc(F)c(OCC(O)CNC)c2)nc(-c2c(C)noc2C)c1C` (stereo not drawn) [Example 50-3] were, in that order, no less than 20 µM and 0.1 to 1 µM.
The like results for `CNCC(O)COc1cccc(-c2nc(N3CCN(CC(F)(F)F)[C@@H](C)C3)cc(N(C)C3CCOCC3)n2)c1` (stereo partly drawn) [Example 594-1a] were, in that order, 10 to 20 µM and 0.1 to 1 µM.
Taken in the same sequence, the figures for `CNCC(O)COc1cccc(-c2nc(NC3CCOC3)c(C)c(C(=O)N(C)C3CCOCC3)n2)c1` (stereo not drawn) [Example 402-1a] were 10 to 20 µM and 3 to 10 µM.
With `CNCC(O)COc1cccc(-c2nc(C(=O)NC3CCOCC3)cc(N(C)C3CCOCC3)n2)c1` (stereo not drawn) [Example 530-1a], the half-inhibitory concentration (IC50) in test [1] lay in the range of 5 to 10 µM; on human CARM1 (PRMT4), 0.1 to 1 µM.
The like results for `CNCC(O)COc1cccc(-c2nc(N[C@@H]3CCOC3)c(C)c(N(CCC#N)C3CC3)n2)c1` (stereo partly drawn) [Example 426-1a] were, in that order, 10 to 20 µM and 0.1 to 1 µM.
For `CNCC(O)COc1cccc(-c2nc(N(C)C3CCOCC3)c(C)c(C(C)(C)O)n2)c1` (stereo not drawn) [Example 545-1a], the 50% inhibitory concentration (IC50) lay within 10 to 20 µM in test [1] and 0.1 to 1 µM at human CARM1 (PRMT4).
`CNCC(O)COc1cccc(-c2nc(NC3CCOC3)c(C)c(C(=O)NC)n2)c1` (stereo not drawn) [Example 384-1a]: the IC50 was 10 to 20 µM in test [1] and 0.1 to 1 µM at human CARM1 (PRMT4).
Turning to `CNCC(O)COc1cccc(-c2nc(-c3c[nH]cn3)cc(N(C)C3CCOCC3)n2)c1` (stereo not drawn) [Example 589-1a], the values for the IC50 (in test [1]; at human CARM1 (PRMT4)) were 10 to 20 µM and 0.1 to 1 µM, respectively.
Taken in the same sequence, the figures for `CCNc1nc(-c2cccc(OCC(O)CNC)c2)nc(NC2CCOCC2)c1C` (stereo not drawn) [Example 676-1a] were no less than 20 µM and 1 to 3 µM.
Regarding `CNCC(O)COc1cccc(-c2nc(NCCCN3CCCC3=O)cc(-c3cc4ccccc4o3)n2)c1` (stereo not drawn) [Example 649-1a], the concentration for half-maximal inhibition (IC50) in test [1] is no less than 20 µM; on human CARM1 (PRMT4), 0.1 to 1 µM.
Taken in the same sequence, the figures for `CNCC(O)COc1cccc(-c2nc(NCCOC)cc(-c3cncnc3)n2)c1` (stereo not drawn) [Example 659-1a] were no less than 20 µM and 0.1 to 1 µM.
For `CNCC(O)COc1cccc(-c2nc(C3CCN(C(=O)N(C)C)CC3)cc(N(C)C3CCOCC3)n2)c1` (stereo not drawn) [Example 515-1a], the values for the IC50 (in test [1]; at human CARM1 (PRMT4)) were 5 to 10 µM and 0.1 to 1 µM, respectively.
For the compound `CNCC(O)COc1cccc(-c2nc(N[C@@H]3CCOC3)c(C)c(N3CC[C@H](N(C)C(C)=O)C3)n2)c1` (stereo partly drawn) [Example 430-1a], the IC50 in test [1] was 10 to 20 µM; at human CARM1 (PRMT4), 0.1 to 1 µM.
As for `CNCC(O)COc1cccc(-c2nc(NCCCN3CCCC3=O)cc(-c3cccc4ncccc34)n2)c1` (stereo not drawn) [Example 648-1a], the IC50 in test [1] is no less than 20 µM; at human CARM1 (PRMT4) it was 0.1 to 1 µM.
The like results for `CNCC(O)COc1cccc(-c2nc(-c3nc[nH]c3C)cc(N(C)C3CCOCC3)n2)c1` (stereo not drawn) [Example 603-1a] were, in that order, 10 to 20 µM and 1 to 3 µM.
The like results for `CNCC(O)COc1cccc(-c2nc(NC3CCOCC3)c(C)c(-c3c(C)n[nH]c3C)n2)c1` (stereo not drawn) [Example 661-1a] were, in that order, no less than 20 µM and 0.1 to 1 µM.
Taken in the same sequence, the figures for `CNCC(O)COc1cccc(-c2nc(-c3cc4ccccc4o3)cc(N(CCOC)CCOC)n2)c1` (stereo not drawn) [Example 640-1a] were no less than 20 µM and 0.1 to 1 µM.
Take `CNCC(O)COc1ccc(C#N)c(-c2nc(NC3CCN(C(=O)OC)CC3)c(C)c(-c3c(C)noc3C)n2)c1` (stereo not drawn) [Example 165-3]: the half-maximal inhibitory concentration (IC50) was no less than 20 µM in test [1] and 0.1 to 1 µM at human CARM1 (PRMT4).
The like results for `CNCC(O)COc1cccc(-c2nc(NC3CCNCC3)cc(-c3ccncc3)n2)c1` (stereo not drawn) [Example 666-1a] were, in that order, no less than 20 µM and 0.1 to 1 µM.
Taken in the same sequence, the figures for `CNCC(O)COc1cccc(-c2nc(C(=O)N(C)CC3CCOCC3)cc(N(C)C3CCOCC3)n2)c1` (stereo not drawn) [Example 592-1a] were 10 to 20 µM and 0.1 to 1 µM.
Turning to `CNCC(O)COc1cccc(-c2nc(N3CCN(S(C)(=O)=O)[C@@H](C)C3)cc(N(C)C3CCOCC3)n2)c1` (stereo partly drawn) [Example 520-1a], the IC50 in test [1] fell in the range of 5 to 10 µM; on human CARM1 (PRMT4), 0.1 to 1 µM.
Taken in the same sequence, the figures for `CNCC(O)COc1cccc(-c2nc(NC3CCOCC3)cc(-c3c(C)n[nH]c3C)n2)c1` (stereo not drawn) [Example 670-1a] were no less than 20 µM and 0.1 to 1 µM.
Taken in the same sequence, the figures for `CNCC(O)COc1cccc(-c2nc(N[C@H]3C[C@H](O)C3)cc(N(C)C3CCOCC3)n2)c1` (stereo partly drawn) [Example 590-1a] were 10 to 20 µM and 0.1 to 1 µM.
For the compound `CNCC(O)COc1cccc(-c2nc(N[C@H]3CCOC3)c(C)c(C3CCOCC3)n2)c1` (stereo partly drawn) [Example 347-1a], the figures for the 50% inhibitory concentration (IC50) (in test [1]; at human CARM1 (PRMT4)) were 10 to 20 µM and 0.1 to 1 µM, respectively.
The like results for `CNCC(O)COc1cccc(-c2nc(-c3cccc(C#N)c3)cc(N(CCOC)CCOC)n2)c1` (stereo not drawn) [Example 629-1a] were, in that order, no less than 20 µM and 0.1 to 1 µM.
The like results for `COC(=O)N1CC[C@H](Nc2nc(-c3cc(OC[C@H](O)CN(C)C)ccc3Cl)nc(-c3c(C)noc3C)c2C)C[C@@H]1C` [Example 193-3] were, in that order, no less than 20 µM and 0.1 to 1 µM.
Taken in the same sequence, the figures for `CNCC(O)COc1cccc(-c2nc(N[C@@H]3CCOC3)c(C)c(N3CCn4c(nnc4C(F)(F)F)C3)n2)c1` (stereo partly drawn) [Example 365-1a] were 10 to 20 µM and 0.1 to 1 µM.
Regarding `CNCC(O)COc1cccc(-c2nc(NCCCN3CCCC3=O)cc(-c3cnn(CC(C)C)c3)n2)c1` (stereo not drawn) [Example 635-1a], the values for the IC50 (in test [1]; on human CARM1 (PRMT4)) were no less than 20 µM and 1 to 3 µM, respectively.
On to `CNCC(O)COc1cccc(-c2nc(Nc3c(C)noc3C)cc(N(C)C3CCOCC3)n2)c1` (stereo not drawn) [Example 597-1a], for which the IC50 lay within 10 to 20 µM in test [1] and 0.1 to 1 µM at human CARM1 (PRMT4).
With `CNCC(O)COc1cccc(-c2nc(N[C@@H]3CCOC3)c(C)c(C(=O)N3CCOCC3)n2)c1` (stereo partly drawn) [Example 403-1a], the half-maximal inhibitory concentration (IC50) is 10 to 20 µM in test [1] and 3 to 10 µM on human CARM1 (PRMT4).
As to `CNCC(O)COc1cccc(-c2nc(NC3CCOC(C)C3)c(C)c(-c3c(C)noc3C)n2)c1Cl` (stereo not drawn) [Example 80-3], the IC50 in test [1] is no less than 20 µM; at human CARM1 (PRMT4) it was 0.1 to 1 µM.
The like results for `CNCC(O)COc1cccc(-c2nc(NC3(C(=O)NC)CCOC3)c(C)c(-c3c(C)noc3C)n2)c1` (stereo not drawn) [Example 113-1a] were, in that order, 10 to 20 µM and 3 to 10 µM.
The like results for `CNCC(O)COc1cccc(-c2nc(N3CCC4(CCOC4)CC3)cc(N(C)C3CCOCC3)n2)c1` (stereo not drawn) [Example 582-1a] were, in that order, 10 to 20 µM and 0.1 to 1 µM.
`CNCC(O)COc1cccc(-c2nc(-c3ccnc(C(=O)N(C)C)c3)cc(N(C)C3CCOCC3)n2)c1` (stereo not drawn) [Example 535-1a]: the results for the IC50 (in test [1]; at human CARM1 (PRMT4)) were 5 to 10 µM and 0.1 to 1 µM, respectively.
The like results for `CNCC(O)COc1cccc(-c2nc(NC3(C)CCOCC3)cc(N3CCOCC3)n2)c1` (stereo not drawn) [Example 684-1a] were, in that order, no less than 20 µM and 1 to 3 µM.
Taken in the same sequence, the figures for `CNCC(O)COc1cccc(-c2nc(N[C@@H]3CCOC3)c(C)c(N3CCCC3c3nc(C)no3)n2)c1` (stereo partly drawn) [Example 472-1a] were 10 to 20 µM and 0.1 to 1 µM.
